The values that follow come from patent publication US7060725B2, “Substituted sulfamate anticonvulsant derivatives” (Janssen Pharmaceutica N.V., priority 2002, dated 2006).

For assay [1], the system named is maximal electroshock seizure (MES-induced seizure spread). Nature of the assay: Maximal electroshock seizure (MES) test, mouse. Type of assay: in vivo, mice. As for the experimental part:
Anticonvulsant activity was determined using the standard MES model for generalized tonic-clonic seizures (Swinyard E A, Woodhead J H, White H S, Franklin M R, In: Levy R H, Mattson R H, Meldrum B S, Penry J K, Dreifuss F E eds. Antiepileptic drugs. New York: Raven Press, 1989:85–102).
An electric stimulus of 0.2 sec duration, 60 Hz, 50 mA in mice, 150 mA in rats, was delivered via corneal electrodes primed with an electrolyte solution containing an anesthetic agent (0.5% tetracaine hydrochloride in 0.9% saline).
Mice or rats were randomly selected into control and test groups. The animals were dosed with vehicle or test compound, at varying concentrations. […] Rats were subjected to electrical stimulus at time intervals between 15 minutes and 4 hours following administration of test compound. Abolition of the hind limb tonic extensor component was an indication of the test compound's ability to inhibit MES-induced seizure spread.
The ED50 (the calculated dose required to block the hindlimb tonic-extensor component of the maximal electroshock seizure in 50% of the animals tested) was calculated. A probit analysis (Finney D J. Probit Analysis. Cambridge, England: Cambridge University Press, 1971) was used to calculate the ED50.
Following the mouse procedure described above, representative compounds of the instant invention were tested for biological activity in the mouse, with results as listed in Table 5. Mouse activity is listed as number of mice active/total number of mice tested @ time after administration of the test compound.

For assay [2], the system named is simple and complex partial seizure and secondarily generalized seizures. As to conditions: cited from earlier work.
Assay [3] concerns maximal electroshock seizure (MES-induced seizure spread). The experiment in a line: Maximal electroshock seizure (MES) test, rat. The assay is classed as in vivo, rats. As to conditions: for Rat Activity (oral) (number of rats active/total number of rats tested): 30 mg/kg. As for the experimental part: Anticonvulsant activity was determined using the standard MES model for generalized tonic-clonic seizures (Swinyard E A, Woodhead J H, White H S, Franklin M R, In: […], Meldrum […], Dreifuss F E eds. Antiepileptic drugs. New York: Raven Press, 1989:85-102). An electric stimulus of 0.2 sec duration, 60 Hz, 50 mA in mice, 150 mA in rats, was delivered via corneal electrodes primed with an electrolyte solution containing an anesthetic agent (0.5% tetracaine hydrochloride in 0.9% saline). Mice or rats were randomly selected into control and test groups. The animals were dosed with vehicle or test compound, at varying concentrations. Mice were subjected to the electrical stimulus at 30 minutes and 4 hours following administration of test compound. […] Abolition of the hind limb tonic extensor component was an indication of the test compound's ability to inhibit MES-induced seizure spread. […] A probit analysis (Finney D J. Probit Analysis. Cambridge, England: Cambridge University Press, 1971) was used to calculate the ED50. Following the rat procedure described above, representative compounds of the instant invention were tested for biological activity in the rat, with results as listed in Table 6 and 7. Rat activity is listed as number of rats active/total number of rats tested @ time after administration of the test compound.
For orientation: The maximal electroshock test induces tonic seizures with an electrical stimulus.

Setting [4] is: 100 mg/kg, @ 0.5 hrs after administration.

With `CC1(C)O[C@@H]2[C@@H](CO[C@@]3(COS(N)(=O)=O)OC(C)(C)O[C@@H]23)O1` [TPM, 2,3:4,5-bis-O-(1-methylethylidene)-β-D-fructopyranose sulfamate, reference compound], in assay [1] (@ 2 hrs), the ED50 result is on record as “ED50 = 33 m/k”. Also, the “efficacy in clinical trials of human epilepsy” value in assay [2] was “effective as adjunctive therapy or as monotherapy”.
Regarding `CC1(C)OC2COC3(COS(=O)(=O)NCCBr)OC(C)(C)OC3C2O1` (stereo not shown) [Compound 3], the “Rat Activity (oral) (number of rats active/total number of rats tested)” value in assay [3] (@ 1 hr) is reported as 1/4 @ 1 hr; in assay [3] (@ 2 hrs), 2/4 @ 2 hrs. Besides, the “Mouse Activity” value in assay [1] (dosage 30, 100, 300 mg/kg) was “No Activity”.
For the molecule `CC1(C)OC2[C@@H](CO[C@@]3(COS(=O)(=O)NS(=O)(=O)C(F)(F)F)OC(C)(C)O[C@@H]23)O1` (stereo partly drawn) [Compound 30, N-trifluoromethylsulfonyl-2,3:4,5-bis-O-(1-methylethylidene)-β-D-fructopyranose sulfamate], in assay [3] (@ 4 hrs), the ED50 was 2.38 @ 4 hrs m/k. For the same molecule, the “Rat Activity (oral) (number of rats active/total number of rats tested)” value was 3/4 @ 0.25 hrs in assay [3] (@ 0.25 hrs); 4/4 @ 0.5 hrs in assay [3] (@ 0.5 hrs); 3/4 @ 1 hr in assay [3] (@ 1 hr); 4/4 @ 2 hrs in assay [3] (@ 2 hrs); 4/4 @ 4 hrs in assay [3] (@ 4 hrs). Moreover, the “Mouse Activity (number of mice active/total number of mice tested)” value in assay [1] (setting [4]) is listed as 2/3 @ 0.5 hrs; in assay [1] (100 mg/kg, @ 4 hrs after administration), 3/3 @ 4 hrs; in assay [1] (300 mg/kg, @ 0.5 hrs after administration), 1/1 @ 0.5 hrs; in assay [1] (300 mg/kg, @ 4 hrs after administration), 1/1 @ 4 hrs. Also, the “Mouse Activity” value in assay [1] (dosage 30 mg/kg) is listed as “No activity”.
With `CON(C)S(=O)(=O)OCC12OCC3OC(C)(C)OC3C1OC(C)(C)O2` (stereo not shown) [Compound 11], the ED50 in assay [3] (@ 4 hrs) is 26.75 @ 4 hrs m/k. In addition, the “Rat Activity (oral) (number of rats active/total number of rats tested)” value was 2/3 @ 0.5 hrs in assay [3] (@ 0.5 hrs), 2/3 @ 2 hrs in assay [3] (@ 2 hrs) and 2/3 @ 4 hrs in assay [3] (@ 4 hrs). Besides, the “Mouse Activity” value in assay [1] (dosage 30, 100, 300 mg/kg) is “No activity”.
Take `CC1(C)OC2COC3(COS(=O)(=O)NC(c4ccccc4)c4ccccc4)OC(C)(C)OC3C2O1` (stereo not shown) [Compound 37]: the “Rat Activity (oral) (number of rats active/total number of rats tested)” value in assay [3] (@ 1 hr) is listed as 1/4 @ 1 hr; in assay [3] (@ 2 hrs) it was 2/4 @ 2 hrs; in assay [3] (@ 4 hrs) it was 1/4 @ 4 hrs. Further, the “Mouse Activity (number of mice active/total number of mice tested)” value is recorded as 0/3 @ ½ hr, in assay [1] (setting [4]); 0/3 @ ½ hr, in assay [1] (100 mg/kg, @ 1 hr after administration); 1/3 @ ¼ hrs, in assay [1] (100 mg/kg, @ 2 hrs after administration); 1/3 @ ¼ hrs, in assay [1] (100 mg/kg, @ 6 hrs after administration); 1/3 @ ¼ hrs, in assay [1] (100 mg/kg, @ ¼ hrs after administration). The “Mouse Activity” value in assay [1] (dosage 30 mg/kg) is “No Activity”; in assay [1] (dosage 300 mg/kg), “No activity”.
On to `CC(C)(C)OC(=O)NS(=O)(=O)OC[C@@]12OC[C@H]3OC(C)(C)OC3[C@@H]1OC(C)(C)O2` (stereo partly drawn) [Compound 14, N-t-butoxycarbonyl-2,3:4,5-bis-O-(1-methylethylidene)-β-D-fructopyranose sulfamate], for which the “Rat Activity (oral) (number of rats active/total number of rats tested)” value was 3/4 @ 2 hrs in assay [3] (@ 2 hrs) and 4/4 @ 4 hrs in assay [3] (@ 4 hrs). In addition, in assay [1] (dosage 30, 100, 300 mg/kg), the “Mouse Activity” value is “No activity”.
